Like-named read-outs stand apart in the source and are kept apart here. Where a SMILES comes first, the peptide text is derived from it. Bridges are numbered along the chain shown (N, C = ends). [ ]: non-standard residue; d: D form. Phe(3-Cl) = N[C@@H](Cc1cccc(Cl)c1)C(=O)O; hCys = N[C@@H](CCS)C(=O)O; Nle = CCCC[C@H](N)C(=O)O
Columns and labels:
[1] = system: hepatoma cell line BEL7404; type: cell-based; conditions: for YAP inhibitory activity: summary of Table 8 in words
Method: (§1) The hepatoma cell line BEL7404 (purchased from The Chinese Academy of Sciences cell bank) was a cell line with high expression of YAP protein; HCCLM3 (purchased from The Chinese Academy of Sciences cell bank) was a cell line with low expression of YAP protein. The hepatoma cell lines (BEL7404 or HCCLM3) were inoculated into a 96-well plate at the concentration of 2000 cells/well, and incubated overnight in RPMI1640 containing 1% bovine serum at 37° C. The hepatoma cell lines were treated with polypeptides having different concentrations at 37° C. for 72 h.
(§2) Moreover, IC50 values of the cells in 1.1 were determined using CCK-8 kit.
(§3) The polypeptide represented by SEQ ID NO.:1 was further modified. The IC50 values of the polypeptides at a concentration of 1% in cell cultivating for 72 h were measured.

[2] = system: hepatoma cell line HCCLM3; type: cell-based
Method: as §1, §2, §3

[3] = Table 8, at a concentration of 1% in cell cultivating for 72 h, unit inferred, read-out: IC50 BEL7404
[4] = Table 8, at a concentration of 1% in cell cultivating for 72 h, unit inferred, read-out: IC50 HCCLM3

CCCC[C@@H]1NC(=O)[C@H](CCCNC(=N)N)NC(=O)[C@H](CCCCN)NC(=O)[C@H](CC(C)C)NC(=O)[C@@H](NC(=O)[C@H](Cc2cccc(Cl)c2)NC(=O)[C@@H]2CCCN2C(=O)[C@@H](N)C(C)C)CCSSC[C@@H](C(=O)N[C@@H](CCCCN)C(=O)N2CCC[C@H]2C(=O)N2CCC[C@H]2C(=O)N[C@@H](CCCNC(=N)N)C(=O)N[C@@H](CCCNC(=N)N)C(=O)N[C@@H](CCSC)C(=O)N[C@@H](CCCCN)C(=O)N[C@@H](Cc2c[nH]c3ccccc23)C(=O)N[C@@H](CCCCN)C(=O)N[C@@H](CCCCN)C(=O)O)NC(=O)[C@H](Cc2ccccc2)NC(=O)[C@H](CO)NC(=O)[C@H](C)NC(=O)[C@@H]2CCCN2C1=O [compound 24] (H-VP[Phe(3-Cl)][hCys]LKR[Nle]PASFCKPPRRMKWKK-OH; disulfide 4-13)
IC50 [1, 3]: 25.7 ± 3 µM | IC50 [2, 4]: 67.3 ± 38.5 µM

CCCC[C@@H]1NC(=O)[C@H](CCCCN)NC(=O)[C@H](CCCCN)NC(=O)[C@H](CC(C)C)NC(=O)[C@@H](NC(=O)[C@H](Cc2cccc(Cl)c2)NC(=O)[C@@H]2CCCN2C(=O)[C@@H](N)C(C)C)CCSSC[C@@H](C(=O)N[C@@H](CCCCN)C(=O)N2CCC[C@H]2C(=O)N2CCC[C@H]2C(=O)N[C@@H](CCCNC(=N)N)C(=O)N[C@@H](CCCNC(=N)N)C(=O)N[C@@H](CCSC)C(=O)N[C@@H](CCCCN)C(=O)N[C@@H](Cc2c[nH]c3ccccc23)C(=O)N[C@@H](CCCCN)C(=O)N[C@@H](CCCCN)C(=O)O)NC(=O)[C@H](Cc2ccccc2)NC(=O)[C@H](CO)NC(=O)[C@H](C)NC(=O)[C@@H]2CCCN2C1=O [compound 23] (H-VP[Phe(3-Cl)][hCys]LKK[Nle]PASFCKPPRRMKWKK-OH; disulfide 4-13)
IC50 [1, 3]: 37.2 ± 1 µM | IC50 [2, 4]: 129 ± 26.4 µM

CCCC[C@@H]1NC(=O)[C@H](CCCCN)NC(=O)[C@H](CCCCN)NC(=O)[C@H](CC(C)C)NC(=O)[C@@H](NC(=O)[C@H](Cc2cccc(Cl)c2)NC(=O)[C@@H]2CCCN2C(=O)[C@@H](N)C(C)C)CSSCC[C@@H](C(=O)N[C@@H](CCCCN)C(=O)N2CCC[C@H]2C(=O)N2CCC[C@H]2C(=O)N[C@@H](CCCNC(=N)N)C(=O)N[C@@H](CCCNC(=N)N)C(=O)N[C@@H](CCSC)C(=O)N[C@@H](CCCCN)C(=O)N[C@@H](Cc2c[nH]c3ccccc23)C(=O)N[C@@H](CCCCN)C(=O)N[C@@H](CCCCN)C(=O)O)NC(=O)[C@H](Cc2ccccc2)NC(=O)[C@H](CO)NC(=O)[C@H](C)NC(=O)[C@@H]2CCCN2C1=O [compound 30] (H-VP[Phe(3-Cl)]CLKK[Nle]PASF[hCys]KPPRRMKWKK-OH; disulfide 4-13)
IC50 [1, 3]: 28.2 ± 1.8 µM | IC50 [2, 4]: 142 ± 9.4 µM

VP(3-Cl)F-Hcy-LKK-Nle-PASFCKPP RRMKWKK [SEQ ID NO.: 23]
YAP inhibitory activity [1]: best inhibitory activity

CCCC[C@@H]1NC(=O)[C@H](CCCCN)NC(=O)[C@H](CCCCN)NC(=O)[C@H](CC(C)C)NC(=O)[C@@H](NC(=O)[C@H](Cc2cccc(Cl)c2)NC(=O)[C@@H]2CCCN2C(=O)[C@@H](N)C(C)C)CCSSC[C@@H](C(=O)N[C@@H](CCCCN)C(=O)N2CCC[C@H]2C(=O)N2CCC[C@H]2C(=O)N[C@@H](CCCNC(=N)N)C(=O)N[C@@H](CCCNC(=N)N)C(=O)N[C@@H](CCSC)C(=O)N[C@@H](CCCCN)C(=O)N[C@@H](Cc2c[nH]c3ccccc23)C(=O)N[C@@H](CCCCN)C(=O)N[C@@H](CCCCN)C(=O)O)NC(=O)[C@H](Cc2ccccc2)NC(=O)[C@H](CO)NC(=O)[C@H](CC(=O)O)NC(=O)[C@@H]2CCCN2C1=O [compound 27] (H-VP[Phe(3-Cl)][hCys]LKK[Nle]PDSFCKPPRRMKWKK-OH; disulfide 4-13)
IC50 [1, 3]: 60.2 ± 15.2 µM | IC50 [2, 4]: < 1000 µM

VP-Hcy-(3-Cl)F-LKK-Nle-PASCFKPP RRMKWKK [SEQ ID NO.: 31]
YAP inhibitory activity [1]: best inhibitory activity

CCCC[C@@H]1NC(=O)[C@H](CCCCN)NC(=O)[C@H](CCCNC(=N)N)NC(=O)[C@H](CC(C)C)NC(=O)[C@@H](NC(=O)[C@H](Cc2cccc(Cl)c2)NC(=O)[C@@H]2CCCN2C(=O)[C@@H](N)C(C)C)CCSSC[C@@H](C(=O)N[C@@H](CCCCN)C(=O)N2CCC[C@H]2C(=O)N2CCC[C@H]2C(=O)N[C@@H](CCCNC(=N)N)C(=O)N[C@@H](CCCNC(=N)N)C(=O)N[C@@H](CCSC)C(=O)N[C@@H](CCCCN)C(=O)N[C@@H](Cc2c[nH]c3ccccc23)C(=O)N[C@@H](CCCCN)C(=O)N[C@@H](CCCCN)C(=O)O)NC(=O)[C@H](Cc2ccccc2)NC(=O)[C@H](CO)NC(=O)[C@H](CCC(=O)O)NC(=O)[C@@H]2CCCN2C1=O [compound 22] (H-VP[Phe(3-Cl)][hCys]LRK[Nle]PESFCKPPRRMKWKK-OH; disulfide 4-13)
IC50 [1, 3]: 67.9 ± 6.4 µM | IC50 [2, 4]: 181 ± 21.7 µM

CCCC[C@@H]1NC(=O)[C@@H](NC(=O)[C@H](Cc2cccc(Cl)c2)NC(=O)[C@@H]2CCCN2C(=O)[C@@H](N)C(C)C)CCSSC[C@@H](C(=O)N[C@@H](CCCCN)C(=O)N2CCC[C@H]2C(=O)N2CCC[C@H]2C(=O)N[C@@H](CCCNC(=N)N)C(=O)N[C@@H](CCCNC(=N)N)C(=O)N[C@@H](CCSC)C(=O)N[C@@H](CCCCN)C(=O)N[C@@H](Cc2c[nH]c3ccccc23)C(=O)N[C@@H](CCCCN)C(=O)N[C@@H](CCCCN)C(=O)O)NC(=O)[C@H](Cc2ccccc2)NC(=O)[C@H](CO)NC(=O)[C@H](CC(=O)O)NC(=O)[C@@H]2CCCN2C(=O)[C@H](CCCC)NC(=O)[C@H](CCCCN)NC(=O)[C@H](CCCCN)NC1=O [compound 28] (H-VP[Phe(3-Cl)][hCys][Nle]KK[Nle]PDSFCKPPRRMKWKK-OH; disulfide 4-13)
IC50 [1, 3]: 55.4 ± 6.3 µM | IC50 [2, 4]: 198 ± 19.6 µM

CCCC[C@@H]1NC(=O)[C@@H](NC(=O)[C@H](CCCCN)NC(=O)[C@H](CCCCN)NC(=O)[C@H](CC(C)C)NC(=O)[C@H](Cc2cccc(Cl)c2)NC(=O)[C@@H]2CCCN2C(=O)[C@@H](N)C(C)C)CCSSC[C@@H](C(=O)N[C@@H](CCCNC(=N)N)C(=O)N[C@@H](CCCNC(=N)N)C(=O)N[C@@H](CCSC)C(=O)N[C@@H](CCCCN)C(=O)N[C@@H](Cc2c[nH]c3ccccc23)C(=O)N[C@@H](CCCCN)C(=O)N[C@@H](CCCCN)C(=O)O)NC(=O)[C@@H]2CCCN2C(=O)[C@@H]2CCCN2C(=O)[C@H](CCCCN)NC(=O)[C@H](Cc2ccccc2)NC(=O)[C@H](CO)NC(=O)[C@H](C)NC(=O)[C@@H]2CCCN2C1=O [compound 33] (H-VP[Phe(3-Cl)]LKK[hCys][Nle]PASFKPPCRRMKWKK-OH; disulfide 7-16)
IC50 [1, 3]: 10.8 ± 2.1 µM | IC50 [2, 4]: 81.1 ± 13.1 µM

CSCC[C@H](NC(=O)[C@H](CCCNC(=N)N)NC(=O)[C@@H](N)CCCNC(=N)N)C(=O)N[C@@H](CCCCN)C(=O)N[C@@H](Cc1c[nH]c2ccccc12)C(=O)N[C@@H](CCCCN)C(=O)N[C@@H](CCCCN)C(=O)N1CCC[C@H]1C(=O)N[C@H](C(=O)NCC(=O)N[C@H](C(=O)N[C@H](C(=O)N[C@@H](CO)C(=O)NCC(=O)N1CCC[C@H]1C(=O)N[C@@H](C)C(=O)N[C@@H](C)C(=O)N[C@H](C(=O)N1CCC[C@H]1C(=O)N[C@H](C(=O)N[C@@H](C)C(=O)N[C@@H](CCC(N)=O)C(=O)N[C@@H](Cc1c[nH]cn1)C(=O)O)[C@@H](C)O)[C@@H](C)O)C(C)C)C(C)C)[C@@H](C)O [SEQ ID NO.: 19]
IC50 ([1]; 72 h): 763 ± 31.5 µM | IC50 ([2]; 72 h): > 1000 µM

CSCC[C@H](NC(=O)[C@H](CCCNC(=N)N)NC(=O)[C@@H](N)CCCNC(=N)N)C(=O)N[C@@H](CCCCN)C(=O)N[C@@H](Cc1c[nH]c2ccccc12)C(=O)N[C@@H](CCCCN)C(=O)N[C@@H](CCCCN)C(=O)N[C@H](C(=O)N[C@@H](C)C(=O)NCC(=O)N[C@@H](C)C(=O)N[C@@H](CC(C)C)C(=O)N[C@H](C(=O)N1CCC[C@H]1C(=O)N[C@@H](CCC(N)=O)C(=O)N[C@@H](Cc1c[nH]cn1)C(=O)N[C@H](C(=O)N[C@@H](CCCNC(=N)N)C(=O)N[C@@H](C)C(=O)N[C@@H](Cc1c[nH]cn1)C(=O)N[C@@H](CO)C(=O)N[C@@H](CO)C(=O)N1CCC[C@H]1C(=O)O)C(C)C)[C@@H](C)O)[C@@H](C)O [SEQ ID NO.: 18]
IC50 ([1]; 72 h): 816 ± 14.4 µM | IC50 ([2]; 72 h): > 1000 µM

CCCC[C@@H]1NC(=O)[C@H](CCCCN)NC(=O)[C@H](CCCCN)NC(=O)[C@H](CC(C)C)NC(=O)[C@@H](NC(=O)[C@H](Cc2cccc(Cl)c2)NC(=O)[C@@H]2CCCN2C(=O)[C@H](C)N)CCSSC[C@@H](C(=O)N[C@@H](CCCCN)C(=O)N2CCC[C@H]2C(=O)N2CCC[C@H]2C(=O)N[C@@H](CCCNC(=N)N)C(=O)N[C@@H](CCCNC(=N)N)C(=O)N[C@@H](CCSC)C(=O)N[C@@H](CCCCN)C(=O)N[C@@H](Cc2c[nH]c3ccccc23)C(=O)N[C@@H](CCCCN)C(=O)N[C@@H](CCCCN)C(=O)O)NC(=O)[C@H](Cc2ccccc2)NC(=O)[C@H](CO)NC(=O)[C@H](CC(=O)O)NC(=O)[C@@H]2CCCN2C1=O [compound 25] (H-AP[Phe(3-Cl)][hCys]LKK[Nle]PDSFCKPPRRMKWKK-OH; disulfide 4-13)
IC50 [1, 3]: 119 ± 7.1 µM | IC50 [2, 4]: > 1000 µM

CC[C@H](C)[C@H](NC(=O)[C@H](CCCCN)NC(=O)[C@H](CCCCN)NC(=O)[C@H](Cc1c[nH]c2ccccc12)NC(=O)[C@H](CCCCN)NC(=O)[C@H](CCSC)NC(=O)[C@H](CCCNC(=N)N)NC(=O)[C@@H](N)CCCNC(=N)N)C(=O)N[C@H](C(=O)N[C@@H](Cc1c[nH]cn1)C(=O)N[C@H](C(=O)N[C@@H](CCCNC(=N)N)C(=O)NCC(=O)N[C@@H](CC(=O)O)C(=O)N[C@@H](CO)C(=O)N[C@@H](CCC(=O)O)C(=O)N[C@H](C(=O)N[C@@H](CC(=O)O)C(=O)N[C@@H](CC(C)C)C(=O)N[C@@H](CCC(=O)O)C(=O)N[C@@H](C)C(=O)N[C@@H](CC(C)C)C(=O)N[C@@H](Cc1ccccc1)C(=O)O)[C@@H](C)O)C(C)C)C(C)C [SEQ ID NO.: 17]
IC50 ([1]; 72 h): 211 ± 44.2 µM | IC50 ([2]; 72 h): > 1000 µM

VP(3-Cl)F-LKK-Hcy-Nle-PASFKPPC RRMKWKK [SEQ ID NO.: 33]
YAP inhibitory activity [1]: best inhibitory activity

VP(3-Cl)F-Hcy-LRK-Nle-PASFCKPP RRMKWKK [SEQ ID NO.: 21]
YAP inhibitory activity [1]: best inhibitory activity
